The source of these data is US5840485A, “Topologically segregated, encoded solid phase libraries” (priority 1994, dated 1998).

“Also recorded” adds a separate entry of the source. Read-outs that look alike come from different tables or passages of the source.

The subject of one test is chymotrypsin. Nature of the test: Chymotrypsin cleavage of bead-bound substrates. Type of test: biochemical. The following applies: for cleavage by chymotrypsin (substrate quality) / decrease in the total amount of peptide on bead after chymotrypsin: bead-bound peptide.
Test [1] concerns the target T1, streptavidin (Streptomyces avidinii, UniProt P22629). Nature of the test: Screening of encoded peptide library XXXX-Lys(XXXX)-Lys(ZZ) on beads. The following applies: Table 3, two cycles of Edman degradation. Type of test: binding. As for the experimental part: The peptide library was screened according to published procedures (Lam and Lebl, 1992, Immunomethods 1: 11-15). The peptide beads were first mixed with double-distilled water to remove the DMF. After extensive washing with PBS (137 mM NaCl, 2.7 mM KCl, 4.3 mM Na2 HPO4, 1.4 mM KH2 PO4, pH 7.2), the beads were coated with 0.05% gelatin (w/v) to block any nonspecific binding. The beads were then incubated with a 1:100,000 dilution of streptavidin-alkaline phosphatase at 2 mg/ml (Pierce; Rockford, Ill.) in 2× PBS/Tween/gelatin (2× PBS, 0.1% Tween-20 (v/v), and 0.05% gelatin (w/v)). The beads were then thoroughly washed with TBS (137 mM NaCl, 2.7 mM KCl, 25 mM Tris base, pH 7.4) and the standard substrate 5-bromo-4-chloro-3-indolyl phosphate was added. The beads, together with the substrate, were then transferred to petri dishes for color development. After 30 minutes to 1 hour, the colored beads were collected, with the aid of a micropipette, washed with 6M guanidine hydrochloride, pH 1.0, and subjected to sequencing as described.
This library was used in the screening against two model targets, anti-β-endorphin monoclonal antibody, and streptavidin. […]

Test [2] has as its system anti-β-endorphin antibody. Nature of the test: Antibody detection of model test compounds on non-sequentially coded beads. Type of test: binding. The following applies: test compound on bead surface, coding molecule inside. The text has this: The test compound sequences prepared were Tyr-Gly-Ala-Phe SEQ ID NO:12 and Phe-Gly-Ala-Phe SEQ ID NO:13, coded by doublets of amino acids (see Scheme XIC), and Tyr-Gly-Gly-Phe-Leu SEQ ID NO:14 and Phe(Cl)-Gly-Gly-Phe-Leu SEQ ID NO:15 (encoded by coding by Scheme XIB). […] Moreover, the fidelity and coding could be confirmed by directly sequencing the test peptides.
Therefore, the synthesis was not performed in successive steps of coupling test AA subunit followed by a pair of coding subunits, but rather using the more convenient scheme described below. […] The mixture of amino acids coding for phenylalanine in position four of the test compound structure (Boc-Sar and Boc-Asp(OBzl) in a molar ratio of 1:1 (reflecting their relatively equivalent coupling reactivity which had previously been determined experimentally) was coupled using DIC and HOBT (3 eq each). The reaction was monitored by bromophenol blue method. The resin was washed by DMF (5×) and the Dde group was deprotected by 2% hydrazine hydrate in DMF (10 min). The resin was washed by DMF (5×), 2% HOBT in DMF, and Fmoc-Lys(Dde) was coupled, and Fmoc group removed. The procedure of coupling mixtures of Boc amino acids and Fmoc-Lys(Dde) was repeated two times (coupling the coding subunit mixtures of Ile and Val (2:1) and Lys(ClZ) and Glu(OBzl) (1.5:1)) and after deprotection of the Dde group, Boc-Lys(Fmoc) was coupled to the resin in both syringes. […]

A further test concerns anti-β-endorphin. Nature of the test: Semi-quantitative staining of peptide-beads blocked with polyglutamic acid, biotinyl-anti-β-endorphin followed by streptavidin-AP. Type of test: binding. As to the method: TentaGel amide AM resin (0.3 meq/gram substitution) was hydrated in H2 O for several hours, and washed with 0.1M 2-[N-morpholino]ethanesulfonic acid (MES) buffer, pH 5.7. A varying amount (0 to 10 mg) of polyglutamic acid (Mr 30,000, Sigma Chemical) was added to each of the 0.2 ml of settled bead. Sixty mg of 1-ethyl-3-(3-dimethylamino-propyl) carbodiimide-HCl (EDC) was then added to each tube. The reaction mixtures were rocked gently overnight. The beads were then washed into double distilled (dd) H2 O and 0.24 mmol ethanolamine plus 60 mg EDC in MES buffer were added to each sample. After 4 hours of gentle shaking, the resin was washed extensively with dd H2 O. The resin was then lyophilized to dryness. The treated resin was swollen in dimethylformamide (DMF). Using Fmoc chemistry, the peptide, […] SEQ ID NO:11 was synthesized on each of the treated resin samples using standard techniques. The N-terminal Fmoc group and the side chain protected groups were removed with piperidine and trifluoracetic acid as described (Lam et al., 1991, Nature 354: 82-84).

Test [3] relates to anti-β-endorphin monoclonal antibody (clone 3-E 7). Nature of the test: Screening of encoded peptide library XXXX-Lys(XXXX)-Lys(ZZ) on beads. Type of test: binding. The note with it: Table 3, two cycles of Edman degradation.
Experimental: After thorough washing, streptavidin-alkaline phosphatase was added. One hour later, the beads were washed, substrate was added, and color development proceeded as described above. The color beads were then physically isolated and subjected to sequencing. In these two experiments, only the darkest beads were sequenced.
Test [4] addresses T1, streptavidin. The note with it: for activity with streptavidin after chymotrypsin: in words.
Experimental: (§1) Beads were carefully washed and transferred to 0.1M ammonium carbonate buffer of pH 7.7. Chymotrypsin (1 mg) was added and suspension was shaken at 37° C. for 20 hours. The same treatment was repeated twice for 4 hours.
(§2) Beads were carefully washed and prepared for staining with anti-β-endorphin as described previously.
(§3) Treated beads were tested for binding to anti-β-endorphin and streptavidin.
In test [5] the test system is anti-β-endorphin antibody. Nature of the test: Binding to peptide beads (staining) with or without chymotrypsin treatment / surface synthesis.
Experimental: as §1, §2, §3
Where [6] appears, read: two-peptide beads, surface deprotected by chymotrypsin.

T1 sequence (P22629 25-183): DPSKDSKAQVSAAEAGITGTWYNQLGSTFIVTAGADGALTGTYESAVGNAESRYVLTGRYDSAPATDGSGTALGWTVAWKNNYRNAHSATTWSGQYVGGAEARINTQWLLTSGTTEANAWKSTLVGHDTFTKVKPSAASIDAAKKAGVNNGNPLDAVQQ

`CC(C)(C)OC(=O)N[C@@H](Cc1ccccc1)C(=O)O` [Boc-Phe]: in the test on chymotrypsin (Boc-Phe on all available amino groups of carrier, various conditions), the “release of Boc-Phe by chymotrypsin” value is approximately 1.1%.
As to “HPQF: test peptide sequence deduced from positive beads of the encoded library”, the “Target of positive bead, deduced sequence” value (from here on “Target of positive bead”) with streptavidin [1] was “streptavidin positive”.
Consider Tyr-Gly-Ala-Phe (YGAF), for which the “detection by anti-β-endorphin antibody” value in test [2] is listed as “positive”; in test [2] (listed as Tyr-Gly-Ala-Phe) it was “can be detected”.
For the molecule “YGGFLGGG [peptide synthesized on polyglutamic acid treated resin]”, in the test on anti-β-endorphin (blocked resin, in words), the “staining of polyglutamic acid-blocked resin” value was “stained only weakly”. Further, in the test with anti-β-endorphin (polyglutamic acid 10 mg per 0.2 ml resin), the “Labeling with biotinyl-anti-β-endorphin followed by streptavidin-AP” value is recorded as “trace”.
Regarding “YGPF: test peptide sequence deduced from positive beads of the encoded library”, in test [3], the “Target of positive bead” value was “anti-β-endorphin”.
Consider “YGGF: test peptide sequence deduced from positive beads of the encoded library”, for which, in test [3], the “Target of positive bead” value is recorded as “anti-β-endorphin”.
In the case of Phe-Gly-Ala-Phe (FGAF), the “detection by anti-β-endorphin antibody” value in test [2] is “negative control”.
“LHFQF: LHFQF SEQ ID NO:10 was a poor substrate for chymotrypsin”: the “cleavage by chymotrypsin (substrate quality)” value with chymotrypsin is “poor substrate”.
Turning to LHPQF, at streptavidin [4] (setting [6]), the “reaction with streptavidin of beads with YGGFL on surface and LHPQF inside” value is recorded as “positive reaction; also recorded: still available for interaction with streptavidin”.
For the molecule LHPQFYG, in the test with chymotrypsin, the “cleavage by chymotrypsin (substrate quality)” value was “proceeded efficiently” and the “decrease in the total amount of peptide on bead after chymotrypsin” value is “minimal”. Also, at streptavidin [4], the “activity with streptavidin after chymotrypsin” value is reported as “completely abrogated”. In addition, the “activity with streptavidin after chymotrypsin” value at streptavidin [4] (listed as LHPQF-YG) was “completely lost activity”.
In the case of YGGFL, the “binding activity to anti-β-endorphin antibody after chymotrypsin” value in test [5] (after chymotrypsin, in words) is “completely lost binding activity”. Moreover, the “staining / reaction with anti-β-endorphin of beads with YGGFL on surface and second peptide inside” value in test [5] (setting [6]) is “indistinguishable from staining of the beads containing only YGGFL sequence; also recorded: positive reaction; also recorded: available on the surface of the bead for the interaction with the relevant acceptor”. The “decrease in the total amount of peptide on bead after chymotrypsin” value with chymotrypsin was “minimal”.
